{
  "source": "paper PMC10326281",
  "about": "“Insights into the mechanisms governing P01 scorpion toxin effect against U87 glioblastoma cells oncogenesis” (Frontiers in Pharmacology, 2023)",
  "key": {"[1]": {"system": "MDA-MB231 breast cancer cells", "assay": "Cell viability (MTT), MDA-MB231", "type": "cell-based, human", "settings": "25–200 μg/mL, 24 h, 10,000 cells per well, n = 3", "excerpt": "(§1) The ATCC (American Type Culture Collection, Rockville, MD, United States) cancer cell lines U87 (glioblastoma), MDA-MB231 (breast cancer) and LS174 (colon adenocarcinoma) were routinely cultured in DMEM supplemented with 10% fœtal bovine serum (FBS), 1% l-glutamine and 100 IU/mL penicillin/streptomycin. […] Rat SK2 cDNA cloned into pJA5 plasmid was a gift from Dr. Skolnik (university Langone Medical center, New York). Human SK3 cDNA cloned into Pipru vector was a king gift from Pr. Soriani (Université Côte d’Azur, CNRS, Inserm, Nice, France).\n(§2) The human cell lines U87, MDA-MB231, or LS174 (10,000 cells per well) were treated with P01 peptide at different concentrations (25; 50; 100 and 200 μg/mL). After 24 h, the wells were washed with phosphate-buffered saline (PBS) and then the 3-(4,5-dimethylthiazol-2-yl)-2,5-diphenyltetrazolium bromide (MTT) (0.5 mg/mL) was added to the cells as previously described ([Kouba et al., 2020]). The crystals formed after the reduction of MTT by mitochondrial dehydrogenases were dissolved with dimethylsulfoxyde (DMSO). The quantification of live cells was achieved by measuring absorbance at 560 nm using a spectrophotometer (Thermo-Multiskan EX, Shanghai, China)."}, "[2]": {"system": "LS174 colon adenocarcinoma cells", "assay": "Cell viability (MTT), LS174", "type": "cell-based, human", "settings": "25–200 μg/mL, 24 h, 10,000 cells per well, n = 3", "excerpt": "as §1, §2"}, "[3]": {"system": "MDA-MB231 breast cancer cells", "assay": "Cell proliferation test (crystal violet), MDA-MB231", "type": "cell-based, human", "settings": "2–10 μg/mL, 72 h, n = 3", "excerpt": "as §1\n(§3) The effect of the P01 peptide on cell proliferation was studied. The human cell lines U87, MDA-MB231 or LS174 (5,000 cells per well) were treated with 2; 5 and 10 μg/mL of P01 peptide. The plates were placed at 37°C for 72 h. Cellular proliferation was quantified at 560 nm by a spectrophotometer (Thermo-Multiskan EX, Shanghai, China) after treatment with 1% glutaraldehyde and staining with 0.1% crystal violet.\n(§4) Every 24 h, a series of wells was washed with PBS, the cells were fixed with 1% glutaraldehyde, and preserved in PBS to follow the kinetics of proliferation. After 72 h, the cells were stained with crystal violet 0.1% and quantified by measuring the absorbance at 560 nm using a spectrophotometer (Thermo-Multiskan EX, Shanghai, China)."}, "[4]": {"system": "LS174 colon adenocarcinoma cells", "assay": "Cell proliferation test (crystal violet), LS174", "type": "cell-based, human", "settings": "2–10 μg/mL, 72 h, n = 3", "excerpt": "as §1, §3, §4"}, "[5]": {"system": "MDA-MB231 breast cancer cells", "assay": "Cell migration assay (modified Boyden chamber), MDA-MB231", "type": "cell-based, human", "settings": "50 μg/mL, 5 h, fibronectin 10 μg/mL coating, n = 3", "excerpt": "as §1\n(§5) Cell migration assay was performed using modified Boyden chamber (NeuroProbe Inc., Bethesda, MD, United States) as previously described ([Sarray et al., 2007]). Membranes were coated with fibrinogen (Fg) (50 μg/mL), fibronectin (Fn) (10 μg/mL), collagen type I (Coll-I) (50 μg/mL) for U87, MDA-MB231 and LS174 cells respectively, for 2 h at 37°C. Cells were harvested as a single cell suspension (10^6 cells/mL) and treated with P01 at 50 μg/mL. Then added to pre-coated membranes and allowed to migrate for 5 h at 37°C in Boyden chamber. Cells were fixed on the underside of the membrane, stained by 0.1% crystal violet and migration was quantified by measuring the absorbance at 560 nm using a spectrophotometer (Thermo-Multiskan EX, Shanghai, China)."}, "[6]": {"system": "LS174 colon adenocarcinoma cells", "assay": "Cell migration assay (modified Boyden chamber), LS174", "type": "cell-based, human", "settings": "50 μg/mL, 5 h, collagen type I 50 μg/mL coating, n = 3", "excerpt": "as §1, §5"}, "[7]": {"system": "MDA-MB231 breast cancer cells", "assay": "Cell adhesion assay, MDA-MB231", "type": "cell-based, human", "settings": "data not shown", "excerpt": "as §1\n(§6) Adhesion assays were performed as previously described by ([Sarray et al., 2007]). Glioblastoma U87 cells in suspension (10^6 cells/mL) were treated with 50 μg/mL of P01 and deposited on wells coated with purified extracellular matrix (ECM): Fg at 50 μg/mL; Fn at 10 μg/mL; Coll-I at 50 μg/mL; laminin (Lam) at 15 μg/mL or poly-L-lysine (PL) at 20 μg/mL for U87. MDA-MB231 and LS174 cells were also used in their adequate ECM: Fg and Coll-I respectively. They were incubated to adhere to the substrate for 2 h or 24 h at 37°C. After washing, attached cells were fixed, stained by 0.1% crystal violet, lysed with 1% SDS and quantified by measuring absorbance at 560 nm. The specific adhesion is obtained by subtracting the absorbance obtained in the absence of adhesion substrate (no specific control). […]"}, "[8]": {"system": "LS174 colon adenocarcinoma cells", "assay": "Cell adhesion assay, LS174", "type": "cell-based, human", "settings": "data not shown", "excerpt": "as §1, §6"}, "α1β1 integrin": {"system": "α1β1 integrin", "assay": "U87 cell adhesion in presence of anti-integrin antibodies, α1β1", "type": "cell-based, human", "settings": "50 μg/mL P01, 30 min pre-incubation, 2 h at 37°C, anti-α1β1 (1/200), n = 3", "description": "(§7) To study the implication of integrins in the P01 peptide activity, adhesion assays using anti-integrin blocking antibodies: anti- α1β1 (1/200), anti- αvβ3 (1/200), anti- α5 (1/200) and anti- β3 (1/200) were performed as described above, except that cells were pretreated with the active peptide P01 at 50 μg/mL."}, "αvβ3 integrin": {"system": "αvβ3 integrin", "assay": "U87 cell adhesion in presence of anti-integrin antibodies, αvβ3", "type": "cell-based, human", "settings": "50 μg/mL P01, 30 min pre-incubation, 2 h at 37°C, anti-αvβ3 (1/200), n = 3", "description": "as §7"}, "[9]": {"system": "apamin-sensitive receptor (SKCa channels)", "settings": "selective blocker of SKCa channels displaced; previously reported, ref Zerrouk et al., 1996; cited from earlier work", "excerpt": "Our team has initiated the fractionation of Aa scorpion venom, in order to identify scorpion peptides targeting potassium channels involved in the oncological process. Thus, we succeeded to isolate one peptide well represented in this venom. Based on its N-terminal sequence and its mass fingerprint this peptide corresponded to the P01 toxin, previously described by ([Zerrouk et al., 1996])."}, "SK2 channel": {"system": "SK2 channel", "settings": "Jurkat cells; ref Shakkottai et al., 2001; cited from earlier work", "excerpt": "(§8) This can be explained by the differential expression of either functional SK2 isoforms or other membrane receptors between HEK293 and Jurkat cells."}, "SK3 channel": {"system": "SK3 channel", "settings": "Jurkat cells; ref Shakkottai et al., 2001; cited from earlier work", "excerpt": "as §8"}},
  "note": "Where a SMILES comes first, the peptide text is derived from it. Bridges are numbered along the chain shown (N, C = ends).",
  "data": [
    {"smiles": "CC[C@H](C)[C@H](NC(=O)[C@@H]1CCCN1C(=O)[C@H](CCC(=O)O)NC(=O)[C@@H]1CSSC[C@@H]2NC(=O)[C@H](Cc3c[nH]cn3)NC(=O)[C@H](CCC(=O)O)NC(=O)[C@@H]3CCCN3C(=O)[C@@H]3CSSC[C@H](NC(=O)[C@H](CCCCN)NC(=O)[C@H](CC(=O)O)NC(=O)[C@H](CC(N)=O)NC(=O)[C@H](CC(=O)O)NC(=O)[C@H](CSSC[C@H](NC(=O)[C@H](CO)NC(=O)[C@@H](N)C(C)C)C(=O)N[C@@H](CCC(=O)O)C(=O)N[C@@H](CC(=O)O)C(=O)N3)NC(=O)[C@H](CCCCN)NC(=O)[C@H](C)NC(=O)[C@H](CCC(N)=O)NC(=O)[C@H](C)NC(=O)[C@H](CCCCN)NC(=O)[C@H](CCC(N)=O)NC(=O)[C@H]([C@@H](C)O)NC(=O)[C@H](CO)NC2=O)C(=O)N[C@@H](C(C)C)C(=O)N1)C(=O)O", "note": "[P01] (H-VSCEDCPEHCSTQKAQAKCDNDKCVCEPI-OH; disulfide 3-19, 6-24, 10-26 (inferred); N-terminus and C-terminus assumed)", "values": [
      {"measurement": "cytotoxic effect (cell viability)", "setting": "[1]", "result": "did not have a cytotoxic effect"},
      {"measurement": "cytotoxic effect (cell viability)", "setting": "[2]", "result": "did not have a cytotoxic effect"},
      {"measurement": "effect on cell proliferation", "setting": "[3]", "result": "no effect"},
      {"measurement": "effect on cell proliferation", "setting": "[4]", "result": "no effect"},
      {"measurement": "effect on migration", "setting": "[5]", "result": "no effect"},
      {"measurement": "effect on migration", "setting": "[6]", "result": "no effect"},
      {"measurement": "effect on adhesion", "setting": "[7]", "result": "not affected"},
      {"measurement": "effect on adhesion", "setting": "[8]", "result": "not affected"},
      {"measurement": "effect on adhesive function of α1β1", "setting": "α1β1 integrin", "result": "reduced the adhesive function"},
      {"measurement": "effect on adhesive function of αvβ3", "setting": "αvβ3 integrin", "result": "reduced the adhesive function"},
      {"measurement": "inhibition of 125I-apamin binding", "setting": "[9]", "result": "inhibit the binding of ^125I-apamin"},
      {"measurement": "blocking activity on SK2", "setting": "SK2 channel", "result": "little or no blocking activity"},
      {"measurement": "blocking activity on SK3", "setting": "SK3 channel", "result": "little or no blocking activity"}
    ]}
  ]
}
